From US20210219542A1, “COMPOSITIONS AND METHODS FOR STORAGE OF RED BLOOD CELLS” (THE REGENTS OF THE UNIVERSITY OF COLORADO, A BODY CORPORATE, priority 2018, published 2021)

What was measured:
red blood cells (RBC) [1] = experiment: RBC storage in AS-3 with Ado and/or S1P, LC-MS metabolomics of cells and supernatants; assay type: cell-based; details: for amount of hypoxanthine in RBC and supernatants / 2,3-DPG levels / ATP production / oxidized glutathione levels / reduced glutathione levels: RBC-AS-3 stored at 4° C.; for amount of hypoxanthine in RBC and supernatants: at least up to a concentration less than 100 μM, at which point Ado becomes a substrate for hypoxanthine production, FIG. 5; for 2,3-DPG levels: first two weeks of storage, FIG. 2; for ATP production: first week of storage, FIG. 3; for oxidized glutathione levels / reduced glutathione levels: supplemented conditions, FIG. 4; for glycolytic activity as measured by the lactate-to-glucose ratio: RBC-AS-3 suspension stored at 4° C., Ado 0.1-100 μM or S1P 1-10 μM or both, versus unsupplemented storage, FIG. 1
Description: RBC Storage: To ensure sterility, all storage conditions were set up and subsequently sampled in a biosafety cabinet. The RBC-AS-3 suspension was carefully removed from the bag into 3 ml aliquots inside 15 ml conical tubes. Stock concentrations (formulated in house-made AS-3) of ^13C5-Ado or d7-S1P were diluted to final concentrations of 0.1, 1, 10, and 100 μM for Ado or 1, 5, and 10 μM for S1P. Also included was a storage condition consisting of 10 Ado+5 μM S1P. […] The tubes were gently mixed and placed at 4° C. for storage. On days 2, 8, 11, 15, 22, 29, and 43, the tubes were placed back in a biosafety cabinet and 300 μl were sampled. The tubes were placed back at 4° C., and the samples were centrifuged for 10 minutes at 1500 g, 4° C. Supernatants were separated from cells and frozen until analysis (1st analysis after day 22 sampling). LC-MS Metabolomics: Metabolomics analyses were performed as previously described (Nemkov et al. (2015) Amino Acids doi:10.1007/s00726-015-2019-9; Nemkov et al. (2017) Rapid Commun. Mass Spectrom. 31, 663-673). Briefly, samples were placed on ice and diluted with 9 volumes of methanol:acetonitrile:water (5:3:2, v:v) for RBC, or with 24 volumes of methanol:acetonitrile:water (5:3:2, v:v) for supernatants. Suspensions were vortexed continuously for 30 min at 4° C. Insoluble material was removed by centrifugation at 18,000 g for 10 min at 4° C. and supernatants were isolated for metabolomics analysis by UHPLC-MS. The analytical platform employed a Vanquish UHPLC system (Thermo Fisher Scientific, San Jose, Calif., USA) coupled online to a Q Exactive mass spectrometer (Thermo Fisher Scientific, San Jose, Calif., USA). Samples were resolved over a Kinetex C18 column, 2.1×150 mm, 1.7 μm particle size (Phenomenex, Torrance, Calif., USA) equipped with a guard column (SecurityGuard™ Ultracartridge—UHPLC C18 for 2.1 mm ID Columns—AJO-8782—Phenomenex, Torrance, Calif., USA) using an aqueous phase (A) of water and 0.1% formic acid and a mobile phase (B) of acetonitrile and 0.1% formic acid for positive ion polarity mode, or an aqueous phase (A) of 5% acetonitrile and 1 mM ammonium acetate in water and a mobile phase (B) of 95% acetonitrile and 1 mM ammonium acetate in water for negative ion polarity mode. Samples were eluted from the column using a gradient from 5% to 95% B over 1.6 minutes, followed by an isocratic hold at 95% B for 1.65 minutes, flowed at 450 μl/min and 40° C. The Q Exactive mass spectrometer (Thermo Fisher Scientific, San Jose, Calif., USA) was operated independently in positive or negative ion mode, scanning in Full MS mode (2 μscans) from 60 to 900 m/z at 70,000 resolution, with 4 kV spray voltage, 15 shealth gas, 5 auxiliary gas. Calibration was performed prior to analysis using the Pierce™ Positive and Negative Ion Calibration Solutions (Thermo Fisher Scientific). Acquired data was then converted from .raw to .mzXML file format using Mass Matrix (Cleveland, Ohio, USA). Samples were analyzed in randomized order with a technical mixture injected after every 15 samples to qualify instrument performance. Metabolite assignments, isotopologue distributions, and correction for expected natural abundances of deuterium, ^13C, and ^15N isotopes were performed using MAVEN (Princeton, N.J., USA). The Q Exactive mass spectrometer (Thermo Fisher Scientific, San Jose, Calif., USA) was operated independently in positive or negative ion mode, scanning in Full MS mode (2 μscans) from 60 to 900 m/z at 70,000 resolution, with 4 kV spray voltage, 15 shealth gas, 5 auxiliary gas. Calibration was performed prior to analysis using the Pierce™ Positive and Negative Ion Calibration Solutions (Thermo Fisher Scientific). Acquired data was then converted from .raw to .mzXML file format using Mass Matrix (Cleveland, Ohio, USA). […] Importantly, the use of a standard processed blood unit is an improvement over previous experiments as this material directly represents a realistic storage strategy.

red blood cells (RBC) [2] = experiment: Storage hemolysis: phosphate-conjugated carbohydrates and adenylates in the supernatant fraction of stored RBCs; assay type: cell-based; details: RBC-AS-3 stored at 4° C.; over storage duration; FIG. 6
Description: RBC Storage: To ensure sterility, all storage conditions were set up and subsequently sampled in a biosafety cabinet. The RBC-AS-3 suspension was carefully removed from the bag into 3 ml aliquots inside 15 ml conical tubes. Stock concentrations (formulated in house-made AS-3) of ^13C5-Ado or d7-S1P were diluted to final concentrations of 0.1, 1, 10, and 100 μM for Ado or 1, 5, and 10 μM for S1P. Also included was a storage condition consisting of 10 Ado+5 μM S1P. […] The tubes were gently mixed and placed at 4° C. for storage. On days 2, 8, 11, 15, 22, 29, and 43, the tubes were placed back in a biosafety cabinet and 300 μl were sampled. The tubes were placed back at 4° C., and the samples were centrifuged for 10 minutes at 1500 g, 4° C. Supernatants were separated from cells and frozen until analysis (1st analysis after day 22 sampling). LC-MS Metabolomics: Metabolomics analyses were performed as previously described (Nemkov et al. (2015) Amino Acids doi:10.1007/s00726-015-2019-9; Nemkov et al. (2017) Rapid Commun. Mass Spectrom. 31, 663-673). Briefly, samples were placed on ice and diluted with 9 volumes of methanol:acetonitrile:water (5:3:2, v:v) for RBC, or with 24 volumes of methanol:acetonitrile:water (5:3:2, v:v) for supernatants. […] Samples were analyzed in randomized order with a technical mixture injected after every 15 samples to qualify instrument performance. […]

SMILES | amount of hypoxanthine in RBC and supernatants (red blood cells (RBC) [1]) | 2,3-DPG levels (red blood cells (RBC) [1]) | ATP production (red blood cells (RBC) [1]) | oxidized glutathione levels (red blood cells (RBC) [1]) | reduced glutathione levels (red blood cells (RBC) [1]) | glycolytic activity as measured by the lactate-to-glucose ratio (red blood cells (RBC) [1]) | levels of phosphate-conjugated carbohydrates and adenylates in supernatants (indicative of hemolysis) (red blood cells (RBC) [2])
CCCCCCCCCCCCC/C=C/[C@@H](O)[C@@H](N)COP(=O)(O)O [S1P, sphingosine 1-phosphate] | markedly decreased | higher 2,3-DPG levels through the first two weeks of storage | improved ATP production through the first week of storage | lower | increased | higher glycolytic activity | significantly lower
Nc1ncnc2c1ncn2[C@@H]1O[C@H](CO)[C@@H](O)[C@H]1O [Ado, adenosine] | markedly decreased | higher 2,3-DPG levels through the first two weeks of storage | improved ATP production through the first week of storage | lower | increased | higher glycolytic activity | significantly lower
